Where two headings read alike, the source gives them in different places.
What was measured:
[1] = tested on: animal models of AD; settings: cited from earlier work
[2] = tested on: endothelial cells; settings: cited from earlier work
[3] = tested on: Tg2576 (Tg/+) mice; assay: Microvessel density (MVD) by CD105 staining in immunized mice; type: in vivo, mouse; settings: for microvessel density (MVD), ratio of TFA to total area of imaged field: CD105 staining, mean±SEM
Experimental: (§1) Injections were performed i.p.
Microvessel density (MVD) was quantified by confocal microscopy using the methods developed by Guo et al. (Angiogenesis 4, 187-191 with minor modifications). Using CD105 as a marker of angiogenic cerebrovasculature (Masliah et al. (2005) Neurology 64, 129-131), images of optimal fluorescent intensity were acquired and analyzed using the Zeiss LSM510 Meta software. Areas within the brain section containing high density (“hotspots”) (Bombois et al. (2007) Arch Neurol 64, 583-587) CD105 staining were imaged using the 20×/0.45 N-Achroplan objective using the confocal imaging parameters mentioned previously. The total fluorescence area (TFA) in μm^2 was integrated above background, by the software, for each hotspot. The average TFA from four different hotspots per mouse was quantified. The TFA was used as a numerical representation of the total microvessels stained by the CD105 antibody. The MVD of the imaged field was expressed as a ratio of the TFA to the total area of the image.
Microvessel density quantification: Microvessel density was quantified by confocal microscopy using the methods described previously Biron et al., PLoS ONE 6, e23789 (2011)). Using CD105 as a marker of angiogenic cerebrovasculature (Holley et al. Neurosci Lett 470, 65-70 (2010)), images of optimal fluorescent intensity were acquired and analyzed using the Zeiss LSM510 Meta software. Areas within the brain section containing high density (“hotspots”) CD105 staining were imaged using the 20×/0.45 N-Achroplan objective using the confocal imaging parameters mentioned previously. The total fluorescence area (TFA) in μm^2 was integrated above background, by the software, for each hotspot. The average TFA from four different hotspots per mouse was quantified. The TFA was used as a numerical representation of the total microvessels stained by the CD105 antibody. The microvascular density of the imaged field was expressed as a ratio of the TFA to the total area of the image.

[4] = tested on: Tg2576 mice; assay: Apoptosis by activated caspase-3 staining in immunized mice; type: in vivo, mouse
Experimental: as §1
An anti-activated caspase-3 antibody was used as a marker of apoptosis FIG. 9. […] PBS immunized Tg2576 mice, both preventative and therapeutic, had significant activated caspase-3 staining within the FIG. 9a cortex and hippocampus (not shown) that tended to surround probable abeta plaques. […] The overall density of activated caspase-3 staining in these mice was noted to be lower than the Tg2576 treated with abeta. […] Cortex activated caspase-3 staining appear similar in the abeta immunized Tg2576 to the wild-type variants.

[5] = tested on: Tg2576 (Tg/+) and wild-type (+/+) mice; settings: for tight junction abnormalities compared to PBS immunized controls (qualitative) / TJ expression in microvessels/capillaries (qualitative) / incidence of TJ disruption (percentage of blood vessels with abnormal TJ morphology) / TJ expression in larger vessels (qualitative): Tg2576 mice; for tight junction abnormalities compared to PBS immunized controls (qualitative): cortex and hippocampus; for TJ expression in microvessels/capillaries (qualitative): preventative and therapeutic immunization; for incidence of TJ disruption (percentage of blood vessels with abnormal TJ morphology): mean±SEM; for TJ expression in larger vessels (qualitative): preventative or therapeutic immunization
Experimental: (§2) Briefly, two separate vaccination strategies were carried out, therapeutic and preventative. Prior to immunization, mice were bled from the saphenous vein and serum collected. In the preventative approach, mice were vaccinated beginning at 6 weeks of age and sacrificed at 12 months. Mice used in the therapeutic strategy were vaccinated beginning at 11 months of age and sacrificed at 15 months. Abeta peptide was freshly prepared from lyophilized powder for each set of injections. For immunizations, 2 mg of abeta (human abeta1-40, Bachem) was added to 0.9 mL of deionized water and thoroughly mixed. Then 100 μL of 10×PBS was added to obtain a final 1×PBS concentration. The solution was vortexed and placed at 37° C. overnight until use the next day. Abeta1-40 (100 μg antigen per injection) or PBS (control) was mixed 1:1 (v/v) with complete Freund's adjuvant (CFA) for the first immunization. This was followed by a boost with abeta1-40 (100 μg) or PBS mixed 1:1 (v/v) with incomplete Freund's adjuvant (ICFA) at two weeks and monthly thereafter. From the fifth immunization onward, straight PBS or abeta were injected. Injections were performed i.p.
Dewaxed paraffin sections underwent antigen retrieval using a conventional stovetop pressure cooker using 20 mM Tris with 0.7 mM EDTA buffer (pH 9.0) at full steam for 2 minutes. Cooled slides were then incubated in blocking buffer (25% normal goat serum; 3% BSA; 0.3% Triton X-100, Sigma) for 1 hour at room temperature. Primary antibodies used included rabbit anti-ZO-1 (1:200, Invitrogen), mouse anti-ZO-1 (1:200, Invitrogen), rabbit anti-occludin (1:200, Invitrogen), rabbit anti-activated caspase-3 (1:1000, Imgenex), and mouse anti-human CD105 (1:20, DAKO). Primary antibody staining was performed overnight at 4C in staining buffer (10% normal goat serum; 3% BSA; 0.3% Triton X-100). Normal donkey serum was used when staining with goat primary antibodies. Secondary antibodies used were complimentary to the species of the primary conjugated with either Alexa Fluor dyes 488 or 568 (1:500, Invitrogen). Secondary antibody staining was performed at room temperature for 1 hour in staining buffer. TOTO-3 (1:10000, Invitrogen) was used for nuclear counterstaining. Sections were washed in PBS with 0.1% Tween-20 (Sigma) three times for 5 minutes each between staining steps. Stained sections were coverslipped using Fluoromount-G (Southern Biotech) and allowed to air dry in the dark overnight.
Brain sections were analyzed from paraffin blocks from every fifth section. Images taken on a Zeiss LSM510 Meta (Zeiss, Germany), were acquired with 16 slices, averaged four times, through the Z-plane using a 40×/1.3 oil-immersion Plan-Neofluor objective. The composite projected image was imported into Adobe Photoshop, at 600 dpi, and optimized for contrast and brightness. Quantitative analysis of tight junction morphology was analyzed according the methodology developed by Plumb et al. (Brain Pathol 12, 154-169). Confocal data sets represented approximately 100 cerebral blood vessels from both young and aged Tg2576 and littermate controls in the frontal cortex and hippocampus. Individual vessels were scored as either normal (1) or abnormal (0) for ZO-1 expression. Normal ZO-1 expression was judged as strong, continuous, intense and linear staining. In contrast, abnormal ZO-1 expression was judged as weak, punctate and/or discontinuous staining. […] To minimize the recording of incomplete or undulating vessels as abnormal, due to observed “gaps” in ZO-1 staining, evidence of vessel continuity was sought in the images. For example, the presence of stained nuclei (with TOTO-3) or punctate or diffuse ZO-1 remnants was used to localize the position of abnormal gaps along the vessel tract.

[6] = tested on: Tg2576 and wild-type mice
Experimental: as §2
Tg2576 and wild-type mice immunized, preventatively or therapeutically, with either abeta or PBS were assessed for cerebrovascular leakage and TJ abnormalities by confocal microscopy. Mouse albumin was used as a marker for vascular leakage and was visualized as diffuse gradient staining emanating away from vessels FIG. 8b (white arrowhead).

[7] = tested on: Tg2576 mice
Experimental: Briefly, two separate vaccination strategies were carried out, therapeutic and preventative. […] In the preventative approach, mice were vaccinated beginning at 6 weeks of age and sacrificed at 12 months. Mice used in the therapeutic strategy were vaccinated beginning at 11 months of age and sacrificed at 15 months. Abeta peptide was freshly prepared from lyophilized powder for each set of injections. For immunizations, 2 mg of abeta (human abeta1-40, Bachem) was added to 0.9 mL of deionized water and thoroughly mixed. Then 100 μL of 10×PBS was added to obtain a final 1×PBS concentration. The solution was vortexed and placed at 37° C. overnight until use the next day. Abeta1-40 (100 μg antigen per injection) or PBS (control) was mixed 1:1 (v/v) with complete Freund's adjuvant (CFA) for the first immunization. This was followed by a boost with abeta1-40 (100 μg) or PBS mixed 1:1 (v/v) with incomplete Freund's adjuvant (ICFA) at two weeks and monthly thereafter. From the fifth immunization onward, straight PBS or abeta were injected. Injections were performed i.p.
Aβ was imaged with a Zeiss LSM 710 Laser Scanning.

[8] = mouse, in vivo
Experimental: Mice were terminally anesthetized with ketamine/xylazine (100 mg/kg; 10 mg/kg) and perfused with PBS for 5 minutes. Brains were then rapidly excised, olfactory bulbs and cerebellum removed, weighed and post-fixed in 4% paraformaldehyde for four days at 4° C. The brains were then imbedded in paraffin and sectioned serially at 5 μm. […] Average brain weights were compared amongst the immunized mice by comparing brain to body mass ratios.

[9] = tested on: Tg2576 mice; settings: cited from earlier work
[10] = Tg2576 mice, preventative and therapeutic

**Q.** With C=C(c1ccc(C(=O)O)cc1)c1cc2c(cc1C)C(C)(C)CCC2(C)C [bexarotene] as the molecule, how does the memory performance [1] read?
**A.** The memory performance was “increase memory performance”.

**Q.** And the plaque burden [1]?
**A.** The plaque burden was “reduce plaque burden”.

**Q.** And the “angiogenesis (proliferation, adhesion, invasion and migration of endothelial cells)” value [2]?
**A.** Its value is “inhibits angiogenesis”.

**Q.** With human abeta1-40 as the molecule, how does the “microvessel density (MVD), ratio of TFA to total area of imaged field” value ([3]; Tg2576 mice immunized preventatively) read?
**A.** The value was 0.1972±0.0075.

**Q.** What about the “microvessel density (MVD), ratio of TFA to total area of imaged field” value ([3]; Tg2576 mice immunized therapeutically (after disease onset)) of the same molecule?
**A.** Its value is 0.2180±0.0130.

**Q.** And the “microvascular density compared to PBS controls (qualitative)” value [3, 10]?
**A.** Its value is “reduced microvascular density”.

**Q.** What about the “distribution of activated caspase-3 staining” value ([4]; Tg2576 mice) of the same molecule?
**A.** Its value is “hippocampal restricted caspase-3 staining”.

**Q.** What about the “activated caspase-3 staining (qualitative, overall)” value ([4]; Tg2576 mice (FIG. 9)) of the same molecule?
**A.** The value was “reduced activated caspase-3 staining”.

**Q.** And the “activated caspase-3 staining in cortex” value [4, 10]?
**A.** The value was “limited caspase-3 staining”.

**Q.** And the “percentage of abnormal vascular TJ expression” value ([5]; Example 3, Tg/+ mice immunized preventatively from 6 weeks of age, neocortex and hippocampus)?
**A.** Its value is roughly 10%.

**Q.** What about the “percentage of abnormal vascular TJ expression (TJ pathology)” value ([5]; Example 3, Tg/+ mice immunized therapeutically at 11 months of age, neocortex and hippocampus) of the same molecule?
**A.** The value was roughly 10%.

**Q.** And the “tight junction abnormalities compared to PBS immunized controls (qualitative)” value [5]?
**A.** The value was “reduced tight junction abnormalities”.

**Q.** What about the “tight junction abnormalities compared to PBS immunized controls (qualitative)” value ([5]; listed as Abeta) of the same molecule?
**A.** Its value is “markedly reduced TJ pathology”.

**Q.** And the “tight junction abnormalities compared to PBS immunized controls (qualitative)” value ([5]; listed as Aβ)?
**A.** The value was “reduced tight junction abnormalities”.

**Q.** What about the “TJ expression in microvessels/capillaries (qualitative)” value [5] of the same molecule?
**A.** The value was “normal TJs”.

**Q.** And the “TJ expression in microvessels/capillaries (qualitative)” value ([5]; listed as Aβ)?
**A.** The value was “normal ZO-1 expression in the capillaries”.

**Q.** And the “incidence of TJ disruption (percentage of blood vessels with abnormal TJ morphology)” value ([5]; preventative immunization (6 weeks to 12 months), cortex)?
**A.** The value was 11.33±2.40%.

**Q.** And the “incidence of TJ disruption (percentage of blood vessels with abnormal TJ morphology)” value ([5]; preventative immunization, hippocampus)?
**A.** Its value is 11.91±1.73%.

**Q.** And the “TJ expression in larger vessels (qualitative)” value [5]?
**A.** The value was “larger proportion of abnormal TJ expression”.

**Q.** What about the “TJ expression in larger vessels (qualitative)” value ([5]; listed as Aβ) of the same molecule?
**A.** Its value is “some abnormal TJ pathology mainly in larger vessels”.

**Q.** And the “incidence of TJ disruption (percentage of blood vessels with abnormal TJ morphology)” value ([5]; therapeutic immunization (11 to 15 months), cortex)?
**A.** The value was 10.40±0.81%.

**Q.** What about the “incidence of TJ disruption (percentage of blood vessels with abnormal TJ morphology)” value ([5]; therapeutic immunization, hippocampus) of the same molecule?
**A.** Its value is 11.00±2.26%.

**Q.** What about the “overall vascular leakage (qualitative)” value ([6]; Tg2576 mice, preventatively immunized (FIG. 8)) of the same molecule?
**A.** Its value is “overall reduced vascular leakage”.

**Q.** And the “vascular leakage in larger vessels (mouse albumin)” value ([6]; mouse, in vivo)?
**A.** The value was “periodic vascular leakage”.

**Q.** What about the “vascular leakage in wild-type mice” value ([6]; mouse, in vivo) of the same molecule?
**A.** The value was “no vascular leakage”.

**Q.** What about the “abeta deposition in cerebral capillaries” value ([7]; Tg2576 mice) of the same molecule?
**A.** Its value is “No abeta deposition”.

**Q.** What about the “parenchymal Aβ plaques” value ([7]; Tg/+ mice preventatively immunized) of the same molecule?
**A.** The value was “complete elimination”.

**Q.** What about the Aβ plaque pathology ([7]; Tg/+ mice therapeutically treated) of the same molecule?
**A.** Its Aβ plaque pathology is “dramatic decrease”.

**Q.** And the “Aβ deposits compared to Tg/+, PBS (qualitative)” value ([7]; Tg/+ mice, therapeutic or preventative (FIG. 14))?
**A.** The value was “general reduction of Aβ deposits”.

**Q.** What about the “vascular abeta deposition in larger vessels” value ([7]; mouse, in vivo) of the same molecule?
**A.** Its value is “Mild vascular abeta deposition”.

**Q.** What about the “average brain to body weight ratio (difference between groups)” value [8] of the same molecule?
**A.** The value was “did not reach significance”.

**Q.** What about the “plaque burdens and microgliosis” value ([9]; Tg2576 mice) of the same molecule?
**A.** Its value is “significantly reduced”.

**Q.** What about the “immune response: anti-abeta antibody titres” value ([9]; mice immunized preventatively or therapeutically) of the same molecule?
**A.** The value was “increase in anti-abeta antibody titres”.

**Q.** And the “global integrity of the BBB” value ([9]; post-abeta immunized Tg2576 mice)?
**A.** The value was “improves significantly”.

Source: patent publication US11925678B2, “Methods for diagnosing and treating Alzheimer's disease” (Cava Healthcare Inc., priority 2011, dated 2024)
